According to ChEMBL document CHEMBL1201862, “PubChem BioAssay data set” (2004):
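1) Cells in 96-well plates. 2) Compound, 48 h, 5 concentrations. 3) Linear interpolation between surrounding doses. 4) Unreached endpoint = highest concentration. GI50: concentration for 50% inhibition of growth.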 Activity calls are given as the source filed them. No stated cut-off is given here; in the data, active = GI50 up to about 1.1 µM and inactive = higher.

Legend:
Assay in all cases: NCI tumour cell line growth inhibition, 48 h
T47D = tested on: T47D
OVCAR-8 = tested on: OVCAR-8
K562 = tested on: K562
NCI-H23 = tested on: NCI-H23
NCI-H460 = tested on: NCI-H460
HOP-18 = tested on: HOP-18
SR = tested on: SR
HT-29 = tested on: HT-29
SNB-19 = tested on: SNB-19
OVCAR-5 = tested on: OVCAR-5
MOLT-4 = tested on: MOLT-4
SN12C = tested on: SN12C
HCT-15 = tested on: HCT-15
ACHN = tested on: ACHN
DMS-273 = tested on: DMS-273
TK-10 = tested on: TK-10
COLO 205 = tested on: COLO 205
LOX IMVI = tested on: LOX IMVI
DMS-114 = tested on: DMS-114
MDA-N = tested on: MDA-N
OVCAR-3 = tested on: OVCAR-3
HCC 2998 = tested on: HCC 2998
SNB-75 = tested on: SNB-75
IGROV-1 = tested on: IGROV-1
EKVX = tested on: EKVX
SF-268 = tested on: SF-268
KM-20L2 = tested on: KM-20L2
RPMI-8226 = tested on: RPMI-8226
KM12 = tested on: KM12
Malme-3M = tested on: Malme-3M
DLD-1 = tested on: DLD-1
CCRF-CEM = tested on: CCRF-CEM
SK-OV-3 = tested on: SK-OV-3
CAKI-1 = tested on: CAKI-1
HCT-116 = tested on: HCT-116
U-251 = tested on: U-251
SK-MEL-2 = tested on: SK-MEL-2
A549 = tested on: A549
A498 = tested on: A498
SF-539 = tested on: SF-539
786-0 = tested on: 786-0
HOP-92 = tested on: HOP-92
SNB-78 = tested on: SNB-78
MDA-MB-231 = tested on: MDA-MB-231
HOP-62 = tested on: HOP-62
SK-MEL-5 = tested on: SK-MEL-5
SK-MEL-28 = tested on: SK-MEL-28
RXF 393 = tested on: RXF 393
UO-31 = tested on: UO-31
PC-3 = tested on: PC-3
XF498 = tested on: XF498
M14 = tested on: M14
NCI-H226 = tested on: NCI-H226
MCF7 = tested on: MCF7
OVCAR-4 = tested on: OVCAR-4
HL-60 = tested on: HL-60
UACC-62 = tested on: UACC-62
NCI-H522 = tested on: NCI-H522
DU-145 = tested on: DU-145
Hs-578T = tested on: Hs-578T
UACC-257 = tested on: UACC-257
SF-295 = tested on: SF-295
LXFL 529 = tested on: LXFL 529
NCI/ADR-RES = tested on: NCI/ADR-RES
SW-620 = tested on: SW-620
BT-549 = tested on: BT-549
MDA-MB-435 = tested on: MDA-MB-435

Measured: GI50

C#CCN1CCN(C(=S)N/N=C(\C)c2ccccn2)CC1
inactive: HOP-18 2.72 µM | SNB-19 2.99 µM | TK-10 3.28 µM | MDA-N 1.46 µM | SNB-75 4.86 µM | CAKI-1 1.42 µM | A549 3.12 µM | A498 2.15 µM | SF-539 1.49 µM | SNB-78 5.37 µM | MDA-MB-231 1.28 µM | SK-MEL-5 1.36 µM | SK-MEL-28 1.36 µM | NCI-H226 1.19 µM | DU-145 1.48 µM | Hs-578T 1.74 µM | BT-549 1.49 µM | MDA-MB-435 1.49 µM
0.01 µM: HCT-15
active: T47D 0.0016 µM | OVCAR-8 0.01 µM | K562 0.01 µM | NCI-H23 0.01 µM | NCI-H460 0.619 µM | SR 0.011 µM | HT-29 0.115 µM | OVCAR-5 0.069 µM | MOLT-4 0.01 µM | SN12C 0.232 µM | ACHN 0.044 µM | DMS-273 < 0.0161 µM | COLO 205 0.01 µM | LOX IMVI 0.01 µM | DMS-114 0.01 µM | OVCAR-3 < 0.057 µM | HCC 2998 0.568 µM | IGROV-1 0.01 µM | EKVX 0.0792 µM | SF-268 0.889 µM | KM-20L2 < 0.0248 µM | RPMI-8226 0.01 µM | KM12 0.161 µM | Malme-3M 1 µM | DLD-1 0.01 µM | CCRF-CEM 0.01 µM | SK-OV-3 0.877 µM | HCT-116 0.001 µM | U-251 0.0189 µM | SK-MEL-2 0.262 µM | 786-0 0.0721 µM | HOP-92 0.166 µM | HOP-62 0.363 µM | RXF 393 0.465 µM | UO-31 0.634 µM | PC-3 0.00975 µM | XF498 0.01 µM | M14 0.0263 µM | MCF7 0.01 µM | OVCAR-4 0.35 µM | HL-60 0.01 µM | UACC-62 0.0252 µM | NCI-H522 0.0552 µM | UACC-257 < 0.014 µM | SF-295 0.632 µM | LXFL 529 0.001 µM | NCI/ADR-RES 0.01 µM | SW-620 0.0262 µM

CN(CC#N)C1CCCC[C@H]1O (some centres undefined)
inactive: OVCAR-8 > 100 µM | K562 > 100 µM | NCI-H23 > 100 µM | NCI-H460 > 100 µM | HOP-18 > 100 µM | SR 46.6 µM | HT-29 > 100 µM | SNB-19 > 100 µM | OVCAR-5 > 100 µM | MOLT-4 > 100 µM | SN12C > 100 µM | ACHN > 100 µM | DMS-273 > 100 µM | TK-10 > 100 µM | COLO 205 > 100 µM | LOX IMVI > 100 µM | DMS-114 > 100 µM | OVCAR-3 > 100 µM | HCC 2998 > 100 µM | SNB-75 > 100 µM | IGROV-1 > 100 µM | EKVX > 100 µM | SF-268 > 100 µM | KM-20L2 > 100 µM | RPMI-8226 > 100 µM | KM12 > 100 µM | Malme-3M > 100 µM | DLD-1 > 100 µM | CCRF-CEM > 100 µM | SK-OV-3 > 100 µM | CAKI-1 > 100 µM | HCT-116 > 100 µM | U-251 > 100 µM | SK-MEL-2 > 100 µM | A549 > 100 µM | A498 > 100 µM | SF-539 > 100 µM | 786-0 > 100 µM | HOP-92 > 100 µM | SNB-78 > 100 µM | HOP-62 > 100 µM | SK-MEL-5 > 100 µM | SK-MEL-28 > 100 µM | RXF 393 > 100 µM | UO-31 > 100 µM | XF498 > 100 µM | M14 > 100 µM | NCI-H226 > 100 µM | OVCAR-4 > 100 µM | HL-60 > 100 µM | UACC-62 > 100 µM | NCI-H522 > 100 µM | UACC-257 > 100 µM | SF-295 > 100 µM | LXFL 529 > 100 µM | SW-620 > 90.4 µM
> 100 µM: HCT-15
